Experimental data as given in patent US7897587B2, “Topical dermatological formulations and use thereof” (Nycomed US Inc., priority 2004, dated 2011).

Experiment: Solubility of fluticasone propionate in propylene glycol, propylene carbonate and mixtures thereof
Type: physicochemical
Details: 25° C.
Protocol: In the drawing FIGURE this solubility data obtained at 25° C. is plotted as the dark line and the idealized (theoretical) solubility is plotted as the light line. In “ideal” solutions, the effect of each component is additive in a linear fashion. If solvent A has a property with a value of 50 and solvent B a value of 100 for the same property, an equal blend of A and B would be expected to give a value of 75 for that property. […] The lightly colored line represents “ideal” linear behavior. Since propylene glycol can solubilize about 10 times more drug than propylene carbonate, the “ideal” line slopes down strongly as we move from pure propylene glycol to pure propylene carbonate. […] Two important observations can be made.

## CCC(=O)O[C@]1(C(=O)SCF)[C@H](C)C[C@H]2[C@@H]3C[C@H](F)C4=CC(=O)C=C[C@]4(C)[C@@]3(F)[C@@H](O)C[C@@]21C [Fluticasone propionate, 6α,9α-difluoro-17α(1-oxopropoxy)-11β-hydroxy-16α-methyl-3-oxo-androsta-1,4-diene-17β-carbothioic acid S-fluoromethyl ester]
% propylene glycol/% propylene carbonate 0/100
  Fluticasone propionate solubility: 1.17 % w/w
% propylene glycol/% propylene carbonate 12.5/87.5
  Fluticasone propionate solubility: 1.72 % w/w
% propylene glycol/% propylene carbonate 25/75
  Fluticasone propionate solubility: 1.56 % w/w
% propylene glycol/% propylene carbonate 50/50
  Fluticasone propionate solubility: 1.09 % w/w
% propylene glycol/% propylene carbonate 75/25
  Fluticasone propionate solubility: 0.48 % w/w
% propylene glycol/% propylene carbonate 100/0
  Fluticasone propionate solubility: 0.08 % w/w
All propylene glycol/propylene carbonate mixtures
  Measured solubility compared with ideal (linear, theoretical) solubility: the measured solubility exceeds the ideal solubility
Blends containing about 99 to 45% propylene carbonate
  Measured solubility in blends compared with solubility in single solvent: the measured solubility exceeds the solubility in propylene glycol
Pure solvents
  Drug solubilized by propylene glycol relative to propylene carbonate: about 10 times
